Earlier results, collected in patent US20130178495A1, “IBUDILAST FOR RELIEVING NEGATIVE EFFECTS OF MEDICATION OVERUSE HEADACHE” (MediciNova, Inc., priority 2011, published 2013).

Assays:
[1] = rat, bilateral indwelling catheters between the meninges and the skull
[2] = single patient, 20 mg per day of ibudilast

CC(C)C(=O)c1c(C(C)C)nn2ccccc12 [ibudilast]
facial allodynia [1]: blocked and reversed facial allodynia
frequency and intensity of migraine ([2]; migraine on the right side continued): decreased
daily headaches ([2]; no control): disappeared in one week
